Measured values: patent publication US20230295213A1, “CD73 INHIBITORS AND PHARMACEUTICAL USES THEREOF” (RISEN (SUZHOU) PHARMA TECH CO., LTD., priority 2018, published 2023)
Values belong to the molecule of their own block, whether it stands above or below them.

Columns and labels:
CD73 = CD73 (Homo sapiens (Human), UniProt P21589); experiment: CD73 enzyme inhibition assay (Malachite Green Phosphate Detection Kit); format: biochemical; details: for IC50: CD73 protein 0.5 μg/mL (2x), Tris-HCl pH 7.3, OD 620 nm, read-out: Potency (IC50 class), inhibitory activity in CD73 enzyme assay; for inhibitory activity in the CD73 enzyme assay: qualitative statement
Description: To evaluate the inhibitory effect of selected compounds on CD73, Malachite Green Phosphate Detection Kit (R&D, Cat #DY996) was used. Briefly, compounds were dissolved and diluted to the desired concentration using phosphate-free buffer (Tris-HCl, pH 7.3). 25 μL of the compound solution was added to an equal volume of CD73 protein solution (2× concentration, 0.5 μg/mL, Novoprotein, Cat #C446), followed by a 5-minute incubation at room temperature. 10 μL of Malachite Green Reagent A was added to each well, mixed thoroughly and incubated for 10 minutes at room temperature. 10 μL of Malachite Green Reagent B was then added to each well, mixed thoroughly and incubated for 20 minutes at room temperature. Finally, the optical density of each well was determined using a microplate reader set to 620 nm.

[1] = Pharmacokinetic evaluation in ICR mice, intravenous; format: in vivo; details: mouse; ICR male mice, 1.0 mg/kg intravenous, plasma
Description: A test compound (1.0 mg/kg) was administered to fasted ICR male mice via intravenous injection, and blood samples were collected at time points of 0.08, 0.25, 0.5, 1, 2, 4, 6, 8 and 24 h after the administration. Plasma sample was separated by centrifugation (8000 rpm) and stored at −80° C. until the sample was analyzed. Concentrations of the test compound in the plasma were determined by HPLC-MS/MS: the plasma was dispensed into appropriate tubes containing internal standard and methanol or acetonitrile. The tubes were mixed vigorously for 3 minutes to achieve deproteinization and then centrifuged at 8000 rpm for 5 minutes. The supernatant was transferred to an autosampler vial, injected into the chromatographic system, and quantified on MS/MS detector. Pharmacokinetic parameters including AUC0-t, Cmax, Tmax, t1/2, MRT, Cl and Vd were calculated using WinNonlin 6.3 software. Table 3 summarizes key PK parameters for test compounds (AUC(0-t): the area under the curve from time 0 to time t; AUC(0-∞): the area under the curve from time 0 to infinity; t1/2: Half-life; CL: clearance; C0: the concentration of drug in blood if the drug molecules enter the circulation and are distributed immediately (i.e., at time 0)).

[2] = target: Recombinant human 5′-nucleotidase (hCD73) (Homo sapiens (Human), UniProt P21589); experiment: CD73 enzyme inhibition assay (hCD73, AMP substrate, PiColorLock Gold phosphate detection); format: biochemical; details: hCD73 1 nM solution, AMP 60 μM solution, 37° C. 20 min, absorbance 635 nm
Description: Test compound solution preparation: Stock solution of a test compound was prepared in DMSO at 10 mM concentration. A series of preset 10-concentration solutions of a test compound were prepared by diluting the stock solution in 5-fold gradient dilution with DMSO.
Assay buffer (lx): 20 mm Tris, 25 mM NaCl, 1 mM MgCl2, pH 7.5, 0.005% Tween-20 (freshly prepared, and ready for use).
An aliquot of 0.25 μL of compound solution or DMSO (blank control) was added to each test well of a micro well plate. Recombinant human 5′-nucleotidase (hCD73) was diluted to 1 nM in assay buffer; and an aliquot of 25 μL hCD73 (1 nM) solution was added to the corresponding wells of the plate. The contents of the well were well-mixed, and the plate was covered with sealing film, centrifuged at 1000 rpm for 30 sec., followed by incubation at room temperature for 15 min. AMP, the substrate, was diluted to 60 μM concentration in the assay buffer. To each reaction well was added 25 μL of AMP solution. After mixing well, the plate was covered with sealing film, centrifuged at 1000 rpm for 30 sec., and incubated at 37° C. for 20 min. The absorbance signal (end point) was measured on SPARK plate reader at 635 nm (See PiColorLock™ Gold Phosphate Detection System (Abcam) test kit for reference).
The reaction wells containing CD73 enzyme, substrate AMP and DMSO (no compound) were used as positive control, and the reaction wells containing substrate AMP and DMSO but no CD73 enzyme were used as negative control. The percent (%) inhibition at each concentration of compound was calculated based on and relative to the signal in the High and Low control wells contained within each assay plate. The High control wells were considered as 0% inhibition, and the low control wells, which didn't contain any compound but rather DMSO (final concentration=0.5%), as 100% inhibition. IC50 values were obtained using GraphPad Prism software.

Sequence of Recombinant human 5′-nucleotidase (hCD73) (P21589 27-574): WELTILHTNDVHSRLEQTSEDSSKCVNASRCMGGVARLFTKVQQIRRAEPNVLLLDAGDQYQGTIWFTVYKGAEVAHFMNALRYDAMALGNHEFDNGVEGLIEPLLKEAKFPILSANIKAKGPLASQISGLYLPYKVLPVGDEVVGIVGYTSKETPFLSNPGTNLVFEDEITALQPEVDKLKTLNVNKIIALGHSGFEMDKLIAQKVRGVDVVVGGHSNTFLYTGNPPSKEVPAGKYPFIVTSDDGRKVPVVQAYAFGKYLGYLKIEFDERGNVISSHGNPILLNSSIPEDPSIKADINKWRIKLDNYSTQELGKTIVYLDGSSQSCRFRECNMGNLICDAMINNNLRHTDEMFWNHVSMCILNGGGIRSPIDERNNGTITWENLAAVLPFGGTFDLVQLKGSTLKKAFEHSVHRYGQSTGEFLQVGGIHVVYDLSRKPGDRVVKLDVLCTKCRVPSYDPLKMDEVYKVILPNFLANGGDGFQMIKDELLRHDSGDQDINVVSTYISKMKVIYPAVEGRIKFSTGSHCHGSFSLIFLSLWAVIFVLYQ
Sequence of CD73 (P21589 27-574): as above

IC50 (CD73): 10 to 100 nM
SMILES: CCCCC/C=C\C/C=C\CCCCCCCC(=O)Nc1nc(Cl)nc2c1ncn2[C@@H]1O[C@H](COP(=O)(O)CP(=O)(O)O)C(O)C1O (stereo partly shown) [Compound 11]

inhibitory activity in the CD73 enzyme assay (CD73): showed inhibitory activity
SMILES: O=P(O)(O)CP(=O)(O)CC[C@H]1O[C@@H](n2cnc3c(NCc4ccccc4)nc(Cl)nc32)[C@@H](O)C1O (stereo partly shown) [a-1]

inhibitory activity in the CD73 enzyme assay (CD73): showed inhibitory activity
SMILES: C[C@]12C[C@@H]3C[C@](C)(C1)C[C@@](Nc1nc(Cl)nc4c1ncn4[C@@H]1O[C@H](CCP(=O)(O)CP(=O)(O)O)C(O)[C@@H]1O)(C3)C2 (stereo partly shown) [a-9]

IC50 (CD73): < 10 nM
SMILES: CCCCCCCCCCCCOC(=O)Nc1nc(Cl)nc2c1ncn2[C@@H]1O[C@H](COP(=O)(O)CP(=O)(O)O)C(O)[C@@H]1O (stereo partly shown) [Compound 15]

AUC(0-inf) [1]: 9900 ng·h/mL
AUC(0-t) [1]: 9860 ng·h/mL
Cmax [1]: 8560 ng/mL
half-life [1]: 0.949 h
IC50 [2]: 0.4 nM
SMILES: O=P(O)(O)CP(=O)(O)OC[C@H]1O[C@@H](n2cnc3c(N4CC5(CCCc6ccccc65)C4)nc(Cl)nc32)[C@@H](O)C1O (stereo partly drawn) [d-12]

IC50 (CD73): 10 to 100 nM
SMILES: O=P(O)(O)CP(=O)(O)OC[C@H]1O[C@@H](n2cnc3c(-n4c5ccccc5c5ccccc54)nc(Cl)nc32)C(O)C1O (stereo partly shown) [Compound 10]

IC50 (CD73): 10 to 100 nM
SMILES: CC1(C)[C@@H]2CC[C@@]1(C)C(OC(=O)Cc1nc(Cl)nc3c1ncn3[C@@H]1O[C@H](COP(=O)(O)CP(=O)(O)O)C(O)C1O)C2 (stereo partly shown) [Compound 23]

IC50 [2]: 1.92 nM
SMILES: O=P(O)(O)CP(=O)(O)OC[C@H]1O[C@@H](n2cnc3c(N4CC(c5ccccc5)c5ccccc54)nc(Cl)nc32)[C@@H](O)C1O (stereo partly drawn) [Compound d-38]

SMILES: O=P(O)(O)CP(=O)(O)OC[C@H]1O[C@@H](n2cnc3c(N4C5CCC4CC(O)C5)nc(Cl)nc32)[C@@H](O)C1O (stereo partly shown) [Compound 51]
IC50 (CD73): < 10 nM

IC50 (CD73): < 10 nM
SMILES: O=P(O)(O)CP(=O)(O)OC[C@H]1O[C@@H](n2cnc3c(NC45CC6CC(CC(C6)C4)C5)nc(Cl)nc32)[C@@H](O)C1O (stereo partly shown) [Compound 22]

IC50 (CD73): < 10 nM
SMILES: C[C@]12C[C@@H]3C[C@](C)(C1)C[C@@](Nc1nc(Cl)nc4c1ncn4[C@@H]1O[C@H](COP(=O)(O)CP(=O)(O)O)C(O)[C@@H]1O)(C3)C2 (stereo partly shown) [Compound 9]

IC50 [2]: 1.39 nM
SMILES: O=P(O)(O)CP(=O)(O)OC[C@H]1O[C@@H](n2cnc3c(N4CC(c5ccccc5)(c5ccccc5)C4)nc(Cl)nc32)[C@@H](O)C1O (stereo partly drawn) [d-35]

IC50 (CD73): 10 to 100 nM
SMILES: CCCCCCCCCCCCNC(=O)Nc1nc(Cl)nc2c1ncn2[C@@H]1O[C@H](COP(=O)(O)CP(=O)(O)O)C(O)C1O (stereo partly shown) [Compound 18]

IC50 (CD73): < 10 nM
SMILES: O=P(O)(O)CP(=O)(O)OC[C@H]1O[C@@H](n2cnc3c(NCc4ccccc4)nc(Cl)nc32)[C@@H](O)C1O (stereo partly shown) [Compound 1]

IC50 (CD73): < 10 nM
SMILES: O=P(O)(O)CP(=O)(O)OC[C@H]1O[C@@H](n2cnc3c(NCc4cccc5ccccc45)nc(Cl)nc32)[C@@H](O)C1O (stereo partly shown) [Compound 6]

IC50 (CD73): < 10 nM
SMILES: O=P(O)(O)CP(=O)(O)OC[C@H]1O[C@@H](n2cnc3c(N4CCC5(CCCCC5)C4)nc(Cl)nc32)[C@@H](O)C1O (stereo partly shown) [Compound 31]

AUC(0-inf) [1]: 167000 ng·h/mL
AUC(0-t) [1]: 74100 ng·h/mL
Cmax [1]: 8030 ng/mL
half-life [1]: 28.9 h
SMILES: O=P(O)(O)CP(=O)(O)OC[C@H]1O[C@@H](n2cnc3c(N4CC5(CCCCCC5)c5ccccc54)nc(Cl)nc32)[C@@H](O)C1O (stereo partly drawn) [d-22]

IC50 (CD73): < 10 nM
SMILES: O=P(O)(O)CP(=O)(O)OC[C@H]1O[C@@H](n2cnc3c(NCc4ccc5ccccc5c4)nc(Cl)nc32)[C@@H](O)C1O (stereo partly shown) [Compound 7]
